Assay results from patent US12472185B2, “Methods for killing antibiotic tolerant bacteria” (THE PENN STATE RESEARCH FOUNDATION, priority 2020, dated 2025).

Experiments:
[1] = test system: E. coli BW25113 exponential cells; test: Survival of exponentially-growing cells (drop assay); assay type: cell-based, Escherichia coli
Description: FIG. 2. NPIMA eradicates Escherichia coli, Pseudomonas aeruginosa, and Staphylococcus aureus exponential cells. Survival after 6 hr for (a) E. coli BW25113 with NPIMA and 5-iodoindole at 100 μM, (b) P. aeruginosa PA14 with NPIMA and 5-iodoindole at 100 μM, and (c) S. aureus with NPIMA and 5-iodoindole at 200 μM. Asterisk indicates no viable cells detected. NPIMA, 5-nitro-3-phenyl-1H-indol-2-yl-methylamine hydrochloride.
FIG. 8. NPIMA structure function relationships. Exponential cells of Escherichia coli BW25113 were treated with (a) 2-(aminomethyl) indole, and (b) 2-methyl-5-nitro-3-phenyl-1H-indole for 6 hr. NPIMA, 5-nitro-3-phenyl-1Hindol-2-yl-methylamine hydrochloride.
For bacterial viability, cells were washed twice with 0.85% NaCl, resuspended in 1×PBS, and cell counts were determined via the drop assay (Donegan, Matyac, Seidler, & Porteous, 1991). For human cell viability, pre-cultured human cancer HT-29 cells were dispensed in 98 μl in 96-well plates with approximately 5,000 cells/well. NPIMA was added (2 μl) to produce concentrations of 5, 10, 100, and 200 μM. For controls, Triton X-100 (positive control) and DMSO (negative solvent control), were used, and the medium was used for background. Plates were incubated in a humidified incubator (37° C., 5% CO2) for 24 hr. Cell viability was determined via a cell counting kit (CCK-8 Kit, ab228554; Abcam), and cytotoxicity was determined via the lactate dehydrogenase (LDH) assay (LDH Assay Kit, MK401; Takara).

[2] = test system: P. aeruginosa PA14 persister cells; test: Survival of persister cells (CCCP/ciprofloxacin generated); assay type: cell-based, Pseudomonas aeruginosa; conditions: 100 μM
Description: (§1) FIG. 3. NPIMA kills Escherichia coli, Pseudomonas aeruginosa, persister cells. Survival of (a) E. coli BW25113 and (b) P. aeruginosa PA14 after treatment with NPIMA (100 μM), 5-iodoindole (5-II, 100 μM), and DMSO for 6 hr. Asterisk indicates no viable cells detected. DMSO, dimethyl sulfoxide; NPIMA, 5-nitro-3-phenyl-1H-indol-2-yl-methylamine hydrochloride.
E. coli persister cells were prepared following our previous method (Kim, Yamasaki, et al., 2018; Kwan, Valenta, Benedik, & Wood, 2013). Exponentially-growing cells (turbidity of 0.8 at 600 nm) were treated with rifampicin (100 μg/ml for 30 min) to stop transcription, washed, and any remaining nonpersister cells were lysed by ampicillin in LB (100 μg/ml for 3 hr). Cells were harvested by centrifugation (17,000 g for 1 min) and washed with 1× phosphate-buffered saline buffer (PBS, 8 g NaCl, 0.2 g KCl, 1.15 g Na2HPO4, and 0.2 g KH2PO4 per 1,000 ml) twice to remove all possible carbon sources, then resuspended with 1×PBS. […]
(§2) For bacterial viability, cells were washed twice with 0.85% NaCl, resuspended in 1×PBS, and cell counts were determined via the drop assay (Donegan, Matyac, Seidler, & Porteous, 1991). […] Cell viability was determined via a cell counting kit (CCK-8 Kit, ab228554; Abcam), and cytotoxicity was determined via the lactate dehydrogenase (LDH) assay (LDH Assay Kit, MK401; Takara).

[3] = test system: E. coli BW25113 persister cells; test: Survival of persister cells (rifampicin/ampicillin generated); assay type: cell-based, Escherichia coli; conditions: 100 μM
Description: as §1
E. coli persister cells were prepared following our previous method (Kim, Yamasaki, et al., 2018; Kwan, Valenta, Benedik, & Wood, 2013). Exponentially-growing cells (turbidity of 0.8 at 600 nm) were treated with rifampicin (100 μg/ml for 30 min) to stop transcription, washed, and any remaining nonpersister cells were lysed by ampicillin in LB (100 μg/ml for 3 hr). Cells were harvested by centrifugation (17,000 g for 1 min) and washed with 1× phosphate-buffered saline buffer (PBS, 8 g NaCl, 0.2 g KCl, 1.15 g Na2HPO4, and 0.2 g KH2PO4 per 1,000 ml) twice to remove all possible carbon sources, then resuspended with 1×PBS. Natural E. coli persister cells were generated by treating stationary-phase cells (turbidity of 6 at 600 nm) with ampicillin (100 μg/ml) for 3 hr. P. aeruginosa PA14 persister cells were prepared by incubating to the stationary phase, diluting sixfold, and treating with carbonyl cyanide m-chlorophenylhydrazone (CCCP, 50 mg/ml stock solution in dimethly sulfoxide [DMSO]) to stop adenosine triphosphate (ATP) production (200 μg/ml for 3 hr), washed twice with 0.85% NaCl (5,000 g for 10 min), and any nonpersister cells were killed by ciprofloxacin (5 μg/ml) in LB for 3 hr. Following the antibiotic treatment, bacteria were washed twice with 0.85% NaCl (5,000 g for 10 min).
as §2

[4] = test system: P. aeruginosa + S. aureus; test: In vitro Lubbock chronic wound pathogenic biofilm model; assay type: cell-based, Pseudomonas aeruginosa and Staphylococcus aureus; conditions: 0.5 mM, 6 hr
Description: FIG. 10. NPIMA kills S. aureus and P. aeruginosa in a wound model. Survival of total cells (P. aeruginosa+S. aureus) in the wound model after treatment with NPIMA for 6 h. The left bar is the solvent (DMSO) negative control.
Overnight cultures of S. aureus and P. aeruginosa PA14 were diluted in wound-like media (45% Bolton broth, 50% bovine plasma, and 5% laked horse blood; Sun, Dowd, Smith, Rhoads, & Wolcott, 2008) to a turbidity of 0.5 at 600 nm in 1 ml. Each culture (1%) was used to inoculate fresh 5 ml of wound-like media. The combined culture (200 μl/well) was placed into 96-well plates and incubated at 37° C. with shaking for 24 hr. The non-gel liquid was removed, then the gel was washed once with PBS. NPIMA (0.1 and 0.5 mM) and DMSO were then added (200 μl/well) to the plates, which were incubated for another 6 hr with shaking. By triturating, the gel with cells was removed and added to 0.8 ml of PBS, and the cell viability was measured by spreading 100 μl of diluted culture on LB plates.

[5] = test system: S. aureus; test: Lysis assays (total protein and DNA in supernatants); assay type: cell-based, Staphylococcus aureus; conditions: 100 μM, 6 hr
Description: FIG. 5. NPIMA lyses Escherichia coli, Pseudomonas aeruginosa, and Staphylococcus aureus. Total protein (a) and DNA (b) found in supernatants as evidence of cell lysis after treatment of cells at a turbidity of 0.8 at 600 nm with 100 μM NPIMA after 1 hr for E. coli and P. aeruginosa and 6 hr for S. aureus. NPIMA, 5-nitro-3-phenyl-1H-indol-2-yl-methylamine hydrochloride.
Exponentially-growing E. coli BW25113 cells (turbidity 0.8 at 600 nm) were washed twice with 0.85% NaCl, resuspended in 1 ml of 1×PBS, and NPIMA (100 μM) was added for 1 hr for E. coli and P. aeruginosa and 6 hr for S. aureus with shaking at 250 rpm (0.1% DMSO was used as the negative control). Cell supernatants were collected after centrifuging at 6,500 g (4° C. for 15 min), and total protein was measured by the Bicinchoninic Acid (BCA) protein assay Kit (Prod #23227; Pierce). DNA in the supernatant (199 μl) was detected by adding 1 μl of Picogreen (P7589; Invitrogen) and incubating for 5 min at room temperature in the dark room. The fluorescence signal was read by a Tecan microplate reader (Infinite M200PRO) with 480 nm excitation and 520 nm emission by utilizing a calibration curved made with plasmid pEX18Ap at 0, 0.004, 0.008, 0.016, 0.063, 0.125, 0.25, and 0.5 ng/μl.

Q: How did the “time to eradicate exponentially-growing E. coli” value ([1]; 100 μM (1 MIC)) turn out when Cl.NCc1[nH]c2ccc([N+](=O)[O-])cc2c1-c1ccccc1 [NPIMA, [(5-nitro-3-phenyl-1H-indol-2-yl)methyl]amine hydrochloride] was run?
A: Its value is no more than 3 h.

Q: What about the “killing of exponential E. coli cells” value ([1]; 100 μM, 6 hr) of the same compound?
A: Its value is “eradicated”.

Q: What about the “time to eradicate P. aeruginosa persister cells” value [2] of the same compound?
A: The value was 3 h.

Q: What about the “time to eradicate E. coli persisters” value [3] of the same compound?
A: Its value is 6 h.

Q: And the “killing of E. coli persister cells” value ([3]; 6 hr)?
A: Its value is “eradicated”.

Q: And the “reduction of total viable number of cells compared to DMSO” value [4]?
A: Its value is 10 fold.

Q: What about the “DNA released compared with DMSO alone” value [5] of the same compound?
A: The value was 1.82±0.05 fold.

Q: And the “total protein released compared with DMSO alone” value [5]?
A: The value was 2.9±0.1 fold.
